Substitutions are numbered along the chain they refer to.
Experiments:
Assay type in all cases: binding
[1] = target: T1, DNA polymerase α catalytic subunit (POLA1) (Homo sapiens, UniProt P09884, L764S); experiment: CD437 fluorescence intensity enhancement titration
T1 sequence (P09884 335-1257 L764S): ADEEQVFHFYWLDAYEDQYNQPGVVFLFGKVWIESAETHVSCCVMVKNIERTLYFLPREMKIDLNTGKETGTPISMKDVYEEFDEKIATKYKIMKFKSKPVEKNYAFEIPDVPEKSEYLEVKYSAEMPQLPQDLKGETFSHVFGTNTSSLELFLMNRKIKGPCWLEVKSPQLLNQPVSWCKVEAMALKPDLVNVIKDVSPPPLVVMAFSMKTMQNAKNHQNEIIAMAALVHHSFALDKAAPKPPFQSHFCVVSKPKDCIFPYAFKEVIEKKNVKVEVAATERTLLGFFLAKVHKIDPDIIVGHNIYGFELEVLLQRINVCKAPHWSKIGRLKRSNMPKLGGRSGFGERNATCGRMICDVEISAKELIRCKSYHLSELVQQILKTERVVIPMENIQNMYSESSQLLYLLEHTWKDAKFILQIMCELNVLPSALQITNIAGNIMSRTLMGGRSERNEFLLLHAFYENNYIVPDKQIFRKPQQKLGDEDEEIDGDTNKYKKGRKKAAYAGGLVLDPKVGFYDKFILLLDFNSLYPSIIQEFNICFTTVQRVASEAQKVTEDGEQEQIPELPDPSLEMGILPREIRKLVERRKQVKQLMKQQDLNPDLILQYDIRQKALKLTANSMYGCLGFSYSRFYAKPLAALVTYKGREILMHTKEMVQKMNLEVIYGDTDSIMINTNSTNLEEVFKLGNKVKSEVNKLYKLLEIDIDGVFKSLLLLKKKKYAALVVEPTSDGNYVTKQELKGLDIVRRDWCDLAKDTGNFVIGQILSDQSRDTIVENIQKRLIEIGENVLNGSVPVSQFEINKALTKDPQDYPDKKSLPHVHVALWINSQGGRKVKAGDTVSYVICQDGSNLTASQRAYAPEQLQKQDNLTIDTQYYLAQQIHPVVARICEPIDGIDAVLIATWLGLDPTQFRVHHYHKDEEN

[2] = target: T2, DNA polymerase α catalytic subunit (POLA1) (Homo sapiens, UniProt P09884, L700S); experiment: CD437 fluorescence intensity enhancement titration
T2 sequence (P09884 335-1257 L700S): T1 sequence (P09884 335-1257 L764S) with L366S, S430L

[3] = target: T3, DNA polymerase α catalytic subunit (POLA1) (Homo sapiens, UniProt P09884); experiment: CD437 fluorescence intensity enhancement and anisotropy titration
T3 sequence (P09884 335-1257): T1 sequence (P09884 335-1257 L764S) with S430L

- Kd [1]: 0.094 ± 0.018 µM
- Kd [2]: < 0.005 µM
- Kd [3]: 0.067 ± 0.022 µM
Structure (SMILES): O=C(O)c1ccc2cc(-c3ccc(O)c(C45CC6CC(CC(C6)C4)C5)c3)ccc2c1 [CD437, 6-[3-(1-adamantyl)-4-hydroxyphenyl]-2-naphthalene carboxylic acid]
